# Experimental data reported in article PMC10866072, “Design, synthesis, molecular modelling and biological evaluation of novel 6-amino-5-cyano-2-thiopyrimidine derivatives as potent anticancer agents against leukemia and apoptotic inducers” (Journal of Enzyme Inhibition and Medicinal Chemistry, 2024).
# Key:
# [1] = test system: SK-OV-3; type: cell-based; conditions: Homo sapiens, one dose 10^-5 M, 48 h
# [2] = test system: KM12; type: cell-based; conditions: Homo sapiens, one dose 10^-5 M, 48 h
# [3] = test system: PC-3; type: cell-based; conditions: Homo sapiens, one dose 10^-5 M, 48 h
# [4] = test system: MOLT-4; type: cell-based; conditions: Homo sapiens, one dose 10^-5 M, 48 h, read-out: % growth
# [5] = test system: SF-539; type: cell-based; conditions: Homo sapiens, one dose 10^-5 M, 48 h
# [6] = test system: NCI-H460; type: cell-based; conditions: Homo sapiens, one dose 10^-5 M, 48 h, read-out: % growth
# [7] = test system: SK-MEL-2; type: cell-based; conditions: Homo sapiens, one dose 10^-5 M, 48 h
# [8] = test system: OVCAR-8; type: cell-based; conditions: Homo sapiens, one dose 10^-5 M, 48 h
# [9] = test system: HT29; type: cell-based; conditions: Homo sapiens, HT-29, one dose 10^-5 M, 48 h
# [10] = test system: ACHN; type: cell-based; conditions: Homo sapiens, one dose 10^-5 M, 48 h
# [11] = test system: M14; type: cell-based; conditions: Homo sapiens, one dose 10^-5 M, 48 h
# [12] = test system: MDA-MB-231/ATCC; type: cell-based; conditions: Homo sapiens, one dose 10^-5 M, 48 h
# [13] = test system: full NCI 60 cell lines panel
# [14] = test system: CAKI-1; type: cell-based; conditions: Homo sapiens, CAKI-1, 48 h, one dose 10^-5 M, 48 h
# [15] = test system: SR; type: cell-based; conditions: Homo sapiens, one dose 10^-5 M, 48 h
# [16] = test system: HL-60(TB); type: cell-based; conditions: Homo sapiens, one dose 10^-5 M, 48 h
# [17] = test system: HOP-62; type: cell-based; conditions: Homo sapiens, one dose 10^-5 M, 48 h
# [18] = test system: MDA-MB-435; type: cell-based; conditions: Homo sapiens, one dose 10^-5 M, 48 h, read-out: % growth
# [19] = test system: NCI-H226; type: cell-based; conditions: Homo sapiens, one dose 10^-5 M, 48 h
# [20] = test system: MCF7; type: cell-based; conditions: Homo sapiens, one dose 10^-5 M, 48 h, read-out: % growth
# [21] = test system: SF-295; type: cell-based; conditions: Homo sapiens, one dose 10^-5 M, 48 h
# [22] = test system: RPMI-8226; type: cell-based; conditions: Homo sapiens, one dose 10^-5 M, 48 h
# [23] = test system: HOP-92; type: cell-based; conditions: Homo sapiens, one dose 10^-5 M, 48 h
# [24] = test system: NCI-H23; type: cell-based; conditions: Homo sapiens, one dose 10^-5 M, 48 h, read-out: % growth
# [25] = test system: HCC-2998; type: cell-based; conditions: Homo sapiens, one dose 10^-5 M, 48 h
# [26] = test system: UACC-62; type: cell-based; conditions: Homo sapiens, one dose 10^-5 M, 48 h
# [27] = test system: RXF 393; type: cell-based; conditions: Homo sapiens, RXF 393, 48 h, one dose 10^-5 M, 48 h, read-out: % growth
# [28] = test system: SK-MEL-28; type: cell-based; conditions: Homo sapiens, one dose 10^-5 M, 48 h
# [29] = test system: 786-0; type: cell-based; conditions: Homo sapiens, one dose 10^-5 M, 48 h
# [30] = test system: U251; type: cell-based; conditions: Homo sapiens, U-251, one dose 10^-5 M, 48 h
# [31] = test system: CCRF-CEM; type: cell-based; conditions: Homo sapiens, one dose 10^-5 M, 48 h
# [32] = test system: IGROV1; type: cell-based; conditions: Homo sapiens, IGROV-1, one dose 10^-5 M, 48 h, read-out: % growth
# [33] = test system: MDA-MB-468; type: cell-based; conditions: Homo sapiens, one dose 10^-5 M, 48 h
# [34] = test system: T-47D; type: cell-based; conditions: Homo sapiens, T47D, one dose 10^-5 M, 48 h, read-out: % growth
# [35] = test system: SF-268; type: cell-based; conditions: Homo sapiens, one dose 10^-5 M, 48 h, read-out: % growth
# [36] = test system: NCI-H522; type: cell-based; conditions: Homo sapiens, one dose 10^-5 M, 48 h
# [37] = test system: HS 578T; type: cell-based; conditions: Homo sapiens; one dose 10^-5 M, 48 h; HS 578T; read-out: % growth
# [38] = test system: SNB-75; type: cell-based; conditions: Homo sapiens, one dose 10^-5 M, 48 h
# [39] = test system: OVCAR-3; type: cell-based; conditions: Homo sapiens, one dose 10^-5 M, 48 h
# [40] = test system: OVCAR-4; type: cell-based; conditions: Homo sapiens, one dose 10^-5 M, 48 h
# [41] = test system: MALME-3M; type: cell-based; conditions: Homo sapiens, one dose 10^-5 M, 48 h
# [42] = test system: SK-MEL-5; type: cell-based; conditions: Homo sapiens, one dose 10^-5 M, 48 h, read-out: % growth
# [43] = test system: UO-31; type: cell-based; conditions: Homo sapiens, UO-31, 48 h, one dose 10^-5 M, 48 h
# [44] = test system: DU-145; type: cell-based; conditions: Homo sapiens, one dose 10^-5 M, 48 h
# [45] = test system: UACC-257; type: cell-based; conditions: Homo sapiens, one dose 10^-5 M, 48 h
# [46] = test system: TK-10; type: cell-based; conditions: Homo sapiens, one dose 10^-5 M, 48 h
# [47] = test system: A498; type: cell-based; conditions: Homo sapiens, one dose 10^-5 M, 48 h
# [48] = test system: EKVX; type: cell-based; conditions: Homo sapiens, one dose 10^-5 M, 48 h
# [49] = test system: SNB-19; type: cell-based; conditions: Homo sapiens, one dose 10^-5 M, 48 h, read-out: % growth
# [50] = test system: LOX IMVI; type: cell-based; conditions: Homo sapiens, one dose 10^-5 M, 48 h, read-out: % growth
# [51] = test system: SN12C; type: cell-based, human; conditions: Homo sapiens, one dose 10^-5 M, 48 h
# [52] = test system: OVCAR-5; type: cell-based; conditions: Homo sapiens, one dose 10^-5 M, 48 h
# [53] = test system: K-562; type: cell-based; conditions: Homo sapiens, K562, one dose 10^-5 M, 48 h
# [54] = test system: HCT-116; type: cell-based; conditions: Homo sapiens, one dose 10^-5 M, 48 h, read-out: % growth
# [55] = test system: SW-620; type: cell-based; conditions: Homo sapiens, one dose 10^-5 M, 48 h
# [56] = test system: A549/ATCC; type: cell-based; conditions: Homo sapiens, one dose 10^-5 M, 48 h
# [57] = test system: HCT-15; type: cell-based; conditions: Homo sapiens, one dose 10^-5 M, 48 h, read-out: % growth
structure (smiles),measurement,setting,value
"N=C(NN=Cc1ccc([N+](=O)[O-])cc1)c1c(N)nc(S)nc1-c1ccc(Cl)cc1 [Compound 4i, 4-amino-6–(4-chlorophenyl)-2-mercapto-N'-[(4-nitrophenyl)methylene] pyrimidine-5-carboximidohydrazide]",% growth at 10 µM,[1],103%
same,% growth at 10 µM,[2],99.2%
same,percent cell growth at 10 µM,[3],90.1%
same,activity at 10 µM,[4],105%
same,% growth at 10 µM,[5],96.7%
same,activity at 10 µM,[6],104%
same,% growth at 10 µM,[7],108%
same,% growth of cells at 10 µM,[8],105%
same,% growth at 10 µM,[9],101%
same,% growth at 10 µM,[10],92.1%
same,% growth at 10 µM,[11],107%
same,% growth at 10 µM,[12],96%
same,activity at 10 µM,"[13]; Homo sapiens, 60 cell, 48 h, read-out: Mean % growth",101%
same,activity on all 60 cancer cell lines tested (in words),[13]; one dose,weak activity
same,% growth at 10 µM,[14],89.6%
same,percent cell growth at 10 µM,[15],96.5%
same,% growth at 10 µM,[16],97.3%
same,% growth at 10 µM,[17],95%
same,activity at 10 µM,[18],101%
same,% growth at 10 µM,[19],150%
same,activity at 10 µM,[20],90.7%
same,% cell growth at 10 µM,[21],96.7%
same,% growth at 10 µM,[22],89%
same,% growth at 10 µM,[23],97%
same,activity at 10 µM,[24],106%
same,% growth at 10 µM,[25],104%
same,% growth at 10 µM,[26],94.6%
same,activity at 10 µM,[27],108%
same,% cell growth at 10 µM,[28],101%
same,% growth at 10 µM,[29],103%
same,% growth at 10 µM,[30],98.8%
same,% cell growth at 10 µM,[31],88.6%
same,activity at 10 µM,[32],99.4%
same,percent cell growth at 10 µM,[33],114%
same,activity at 10 µM,[34],90.5%
same,activity at 10 µM,[35],117%
same,% growth at 10 µM,[36],92.9%
same,activity at 10 µM,[37],118%
same,% growth at 10 µM,[38],115%
same,% growth at 10 µM,[39],119%
same,% growth at 10 µM,[40],98.6%
same,% growth at 10 µM,[41],96.9%
same,activity at 10 µM,[42],101%
same,% cell growth at 10 µM,[43],91%
same,% growth at 10 µM,[44],108%
same,percent cell growth at 10 µM,[45],96.5%
same,% cell growth at 10 µM,[46],112%
same,% growth at 10 µM,[47],114%
same,% cell growth at 10 µM,[48],95.8%
same,activity at 10 µM,[49],94.2%
same,activity at 10 µM,[50],106%
same,% growth at 10 µM,[51],92.6%
same,percent cell growth at 10 µM,[52],101%
same,% growth at 10 µM,[53],96.3%
same,activity at 10 µM,[54],108%
same,% growth at 10 µM,[55],102%
same,% growth at 10 µM,[56],103%
same,activity at 10 µM,[57],95.2%
